From article PMC4312629, “Pharmacokinetics of Etravirine Combined with Atazanavir/Ritonavir and a Nucleoside Reverse Transcriptase Inhibitor in Antiretroviral Treatment-Experienced, HIV-1-Infected Patients” (AIDS Research and Treatment, 2015)
Read-outs that look alike come from different tables or passages of the source.

What was measured:
[1] = TEACH: steady-state plasma pharmacokinetics of atazanavir and etravirine (LC-MS/MS, noncompartmental analysis); format: in vivo, HIV-1-infected patients
Description: Blood samples for analyses of atazanavir and ritonavir plasma concentrations were collected over 24 hours (before dose and 1, 2, 3, 4, 6, 9, 12, and 24 hours after dose) on the last day of the two-week pretreatment period and after Week 2 of the treatment period. Blood samples for evaluation of etravirine plasma concentrations were collected after Week 2. Atazanavir, ritonavir, and etravirine were assayed using validated liquid chromatography-mass spectrometry/mass spectrometry, with a lower limit of quantification of 250 ng/mL, 5.00 ng/mL, and 2.00 ng/mL, respectively.
Pharmacokinetic parameters were obtained using noncompartmental analysis (WinNonlin Professional version 4.1, Pharsight, Mountain View, CA, USA) and included C min, maximum plasma concentration (C max), and AUC12 h for etravirine and AUC24 h for atazanavir and ritonavir.
The least square means (LSM) of C min, C max, and AUC24 for atazanavir and ritonavir were estimated with a linear mixed-effects model, including treatment as fixed effect and subject as a random effect (SAS version 9.3, SAS Institute, Cary, NC, USA). A 90% confidence interval (CI) was constructed around the difference between the LSM of test and reference. The LSM differences and 90% CIs were retransformed to the original scale. No effect (prespecified) was declared if the 90% CIs of the LSM ratio were within the limits of 80.00–125.00%. The pharmacokinetics of etravirine was compared with historic data from DUET [21].

[2] = tested on: HIV-1; settings: for median etravirine FC (range): virologic failures (n = 12)
[3] = TEACH pharmacokinetic substudy: addition of TDF for seven days to atazanavir/ritonavir and etravirine; settings: adding TDF to ATV/r and etravirine, both ATV/r dose groups combined (7 patients), compared with Day −1
Description: The trial consisted of a ≤4-week screening period, a pretreatment period of two weeks (atazanavir/ritonavir 300/100 mg qd and two NRTIs), and a 48-week treatment period. Patients were randomized 1 : 1, by a computer-generated interactive web response system, to receive either atazanavir/ritonavir 300/100 mg qd or 400/100 mg qd (Figure 1). […] Atazanavir/ritonavir 400/100 mg qd was given to the other group to offset the potential reduction in atazanavir exposure, while at the same time investigating if the higher dose of atazanavir might further affect etravirine exposure. At baseline, in both groups, one of the two NRTIs was switched to etravirine 200 mg bid. NRTIs were selected by the investigators based on resistance testing; however, tenofovir disoproxil fumarate (TDF) was not permitted. Patients who were intolerant to their NRTI could switch to another sensitive NRTI, excluding TDF. Tenofovir decreases both atazanavir and etravirine exposure.
Seven patients participated in the pharmacokinetic substudy, 3 patients randomized to atazanavir/ritonavir 300/100 mg qd and 4 patients randomized to atazanavir/ritonavir 400/100 mg qd. Because of the small sample size, results of the two groups were combined.

[4] = design: method as in PMID 20881958; settings: Pooled DUET: ETR 200 mg bid + DRV/r 600/100 mg bid, Week 4 (reference, n = 25), cited from earlier work
[5] = healthy volunteers; etravirine 800 mg bid (formulation TF035) and ATV/r 300/100 mg qd; cited from earlier work
[6] = Test 1 (with ATV/r 300/100 mg qd, Week 2) versus pooled DUET reference (ETR + DRV/r, Week 4)
[7] = Test 2 (with ATV/r 400/100 mg qd, Week 2) versus pooled DUET reference (ETR + DRV/r, Week 4)
[8] = with ATV/r 300/100 mg qd, compared with historic control data (DUET)
[9] = with ATV/r 400/100 mg qd, compared with historic data (DUET)

SMILES: COC(=O)N[C@H](C(=O)N[C@@H](Cc1ccccc1)[C@@H](O)CN(Cc1ccc(-c2ccccn2)cc1)NC(=O)[C@@H](NC(=O)OC)C(C)(C)C)C(C)(C)C [atazanavir]
- Tmax ([1]; human, in vivo, Test 1: ATV/r 300/100 mg qd + one NRTI + ETR 200 mg bid, Week 2, median (range), read-out: atazanavir t max): 3 h
- change in atazanavir FC ([2]; virologic failures, baseline to endpoint): no increase

SMILES: Cc1cc(C#N)cc(C)c1Oc1nc(Nc2ccc(C#N)cc2)nc(N)c1Br [etravirine]
- etravirine AUC0–12 h LSM ratio (90% CI) of test versus reference [1, 6]: 1.24 (0.88–1.76)
- etravirine C max LSM ratio (90% CI) of test versus reference [1, 6]: 1.06 (0.78–1.46)
- etravirine C min LSM ratio (90% CI) of test versus reference [1, 6]: 1.07 (0.60–1.90)
- etravirine AUC0–12 h LSM ratio (90% CI) of test versus reference [1, 7]: 0.84 (0.60–1.18)
- etravirine C max LSM ratio (90% CI) of test versus reference [1, 7]: 0.87 (0.65–1.18)
- etravirine C min LSM ratio (90% CI) of test versus reference [1, 7]: 0.83 (0.54–1.29)
- increase in etravirine AUC12 h [1, 8]: 24%
- increase in etravirine C max [1, 8]: 6%
- increase in etravirine C min [1, 8]: 7%
- decrease in etravirine AUC12 h [1, 9]: 16%
- decrease in etravirine C max [1, 9]: 13%
- decrease in etravirine C min [1, 9]: 17%
- decrease in etravirine AUC12 h [3]: 15%
- decrease in etravirine C max [3]: 19%
- etravirine AUC12 h LSM ratio [90% CIs] [3]: 0.85 [0.79–0.92]
- etravirine C max LSM ratio [90% CIs] [3]: 0.81 [0.72–0.91]
- median etravirine FC (range) ([2]; at baseline): 0.73 (0.4–1.7)
- median etravirine FC (range) ([2]; at endpoint): 2.99 (0.6–40.0)
- etravirine AUC0–12 h ([4]; mean ± SD): 7964 ± 11180 ng·h/mL
- etravirine C 0 h ([4]; mean ± SD): 545.0 ± 818.6 ng/mL
- etravirine C max ([4]; mean ± SD): 879.6 ± 1030 ng/mL
- etravirine C min ([4]; mean ± SD): 452.6 ± 806.0 ng/mL
- etravirine t max ([4]; median (range)): 3.95 (0.08–6.08) h
- increase in etravirine AUC24 h [5]: 1.3 fold
- increase in etravirine C min [5]: 1.3 fold
